# Source: ChEMBL document CHEMBL4411324, “Comprehensive structure-activity-relationship of azaindoles as highly potent FLT3 inhibitors” (Bioorg Med Chem, 2019)
# How the values were obtained:
# [1] = target: Receptor-type tyrosine-protein kinase FLT3 (Homo sapiens, UniProt P36888, ITD); test: Inhibition of recombinant human N-terminal GST/His6-fused FLT3 ITD mutant (R571 to S993 residues) expressed in Sf9 insect cells assessed as residual activity using ULightTM-TK peptide as substrate incubated for 90 mins under dark condition by FRET assay
# [2] = system: Receptor-type tyrosine-protein kinase FLT3 (Homo sapiens), P36888 [UNDEFINED MUTATION]; test: Inhibition of recombinant human N-terminal GST/His6-fused FLT3 ITD mutant (R571 to S993 residues) expressed in Sf9 insect cells assessed as residual activity at 2 uM using ULightTM-TK peptide as substrate incubated for 90 mins under dark condition by FRET assay relative to control
# [3] = Lipophilicity, log D of the compound at pH 7.4; format: physicochemical; conditions: buffer
# Receptor-type tyrosine-protein kinase FLT3, sequence (P36888 whole entry, looked up, stated change not applied, the tested form may be a part): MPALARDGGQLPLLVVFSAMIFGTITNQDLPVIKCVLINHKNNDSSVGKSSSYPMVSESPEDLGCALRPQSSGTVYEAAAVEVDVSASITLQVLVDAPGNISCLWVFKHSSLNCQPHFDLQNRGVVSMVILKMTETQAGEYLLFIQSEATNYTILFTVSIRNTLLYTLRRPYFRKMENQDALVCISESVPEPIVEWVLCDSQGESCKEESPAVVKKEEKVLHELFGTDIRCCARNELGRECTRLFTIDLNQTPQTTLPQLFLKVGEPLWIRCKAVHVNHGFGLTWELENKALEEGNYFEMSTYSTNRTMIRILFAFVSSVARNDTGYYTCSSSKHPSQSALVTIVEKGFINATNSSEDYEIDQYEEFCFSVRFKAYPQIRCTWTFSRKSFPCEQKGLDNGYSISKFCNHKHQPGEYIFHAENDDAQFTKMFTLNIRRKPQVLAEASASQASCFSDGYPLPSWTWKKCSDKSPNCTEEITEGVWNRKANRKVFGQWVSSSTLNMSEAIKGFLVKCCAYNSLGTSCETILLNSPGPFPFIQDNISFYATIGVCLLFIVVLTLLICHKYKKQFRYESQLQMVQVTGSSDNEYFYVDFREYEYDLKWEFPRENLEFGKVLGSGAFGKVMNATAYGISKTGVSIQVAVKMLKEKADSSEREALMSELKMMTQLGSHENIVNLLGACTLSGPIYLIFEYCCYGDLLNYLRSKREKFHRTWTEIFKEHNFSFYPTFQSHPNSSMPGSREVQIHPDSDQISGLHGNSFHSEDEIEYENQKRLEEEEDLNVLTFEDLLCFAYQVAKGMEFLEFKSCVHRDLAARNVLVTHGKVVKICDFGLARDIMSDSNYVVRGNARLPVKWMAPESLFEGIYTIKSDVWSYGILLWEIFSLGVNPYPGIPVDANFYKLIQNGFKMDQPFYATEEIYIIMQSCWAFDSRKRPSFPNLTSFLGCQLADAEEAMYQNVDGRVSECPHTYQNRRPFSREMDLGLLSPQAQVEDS
# Receptor-type tyrosine-protein kinase FLT3 (Homo sapiens), P36888 [UNDEFINED MUTATION], sequence (P36888 whole entry, looked up, stated change not applied, the tested form may be a part): as above
Structure (SMILES),IC50 [1],further results
CN(CCNCCCc1ccc(-c2cccnc2)cc1)S(=O)(=O)c1cccc2cnccc12,47.9 nM,
O=S(=O)(NCCCCCCc1ccc(-c2cccnc2)cc1)c1cccc2cnccc12,170 nM,
O=S(=O)(NCCOCCCc1ccc(-c2cccnc2)cc1)c1cccc2cnccc12,38.9 nM,
O=S(=O)(NCCNC/C=C/c1ccc(-c2cncnc2)cc1)c1cccc2cnccc12,,Activity [2]: 13%
O=S(=O)(NCCNC/C=C/c1ccc(-c2cnc3ccccc3c2)cc1)c1cccc2cnccc12,,Activity [2]: 9%
CNC(=O)c1ccc(S(=O)(=O)NCCNC/C=C/c2ccc(-c3cccnc3)cc2)cn1,13.8 nM,
O=S(=O)(NCCNC/C=C/c1ccc(-c2cn[nH]c2)cc1)c1cccc2cnccc12,,Activity [2]: 14%
O=[N+]([O-])c1ccccc1S(=O)(=O)NCCNC/C=C/c1ccc(-c2cccnc2)cc1,8.51 nM,
O=C1NCc2ccc(S(=O)(=O)NCCNC/C=C/c3ccc(-c4cccnc4)cc3)cc21,47.9 nM,
CNC(=O)c1ncccc1-c1ccc(CCC(=O)NCCNS(=O)(=O)c2cccc3cnccc23)cc1,> 10000 nM,
O=S(=O)(NCCNCc1ccc(-c2cccnc2)cc1)c1cccc2cnccc12,158 nM,
O=C1NCc2cc(S(=O)(=O)NCCNC/C=C/c3ccc(-c4cccnc4)cc3)ccc21,18.2 nM,
CN(C/C=C/c1ccc(-c2cccnc2)cc1)CCN(C)S(=O)(=O)c1cccc2cnccc12,126 nM,
Nc1cc2c(S(=O)(=O)NCCNC/C=C/c3ccc(-c4cccnc4)cc3)cccc2cn1,19.5 nM,
O=S(=O)(NCCOC/C=C/c1ccc(-c2cccnc2)cc1)c1cccc2cnccc12,8.32 nM,
O=S(=O)(NCCNC/C=C/c1ccc(-c2ccccc2)cc1)c1cccc2cnccc12,> 10000 nM,

Structure (SMILES),IC50 [1],further results
O=C1NCc2c1cccc2S(=O)(=O)NCCNC/C=C/c1ccc(-c2cccnc2)cc1,20 nM,
O=S(=O)(NCCNC/C=C/c1ccc(-c2ccc3ccccc3c2)cc1)c1cccc2cnccc12,> 10000 nM,
Nc1ncccc1-c1ccc(CCC(=O)NCCNS(=O)(=O)c2cccc3cnccc23)cc1,151 nM,
O=C(CCc1ccc(-c2cccnc2)cc1)NCCNS(=O)(=O)c1cccc2cnccc12,32.4 nM,
O=S(=O)(NCCNC/C=C/c1ccc(-c2cccnc2)cc1)c1cccc2cnccc12,9.55 nM,logD [3]: 1.5; Activity [2]: 13%
CS(=O)(=O)NCCNC/C=C/c1ccc(-c2cccnc2)cc1,646 nM,
O=S(=O)(NCCNCc1ccc2cc(-c3cccnc3)ccc2c1)c1cccc2cnccc12,562 nM,
O=S(=O)(NCCNC/C=C/c1ccc(-c2cccnc2)cc1)c1ccc2cn[nH]c2c1,17 nM,
CN(CCNC/C=C/c1ccc(-c2cccnc2)cc1)S(=O)(=O)c1cccc2cnccc12,182 nM,
O=S(=O)(NCCNC/C=C/c1ccc(-c2cccnc2)cc1)c1cccc2ccccc12,61.7 nM,
Nc1nccc2c(S(=O)(=O)NCCNC/C=C/c3ccc(-c4cccnc4)cc3)cccc12,24 nM,
O=S(=O)(NCCNC/C=C/c1ccc(-c2cccnc2)cc1)c1ccc2[nH]ncc2c1,9.77 nM,
CNC(=O)c1ccc(-c2ccc(CCC(=O)NCCNS(=O)(=O)c3cccc4cnccc34)cc2)cn1,> 10000 nM,
Nc1ccccc1S(=O)(=O)NCCNC/C=C/c1ccc(-c2cccnc2)cc1,26.9 nM,
O=C(NCCNC/C=C/c1ccc(-c2cccnc2)cc1)c1cccc2cnccc12,> 10000 nM,
CN(C/C=C/c1ccc(-c2cccnc2)cc1)CCNS(=O)(=O)c1cccc2cnccc12,135 nM,

# Further lines, with some results ahead:
IC50 [1],Structure (SMILES),further results
0.479 nM,O=C(CCc1ccc(-c2cnc3[nH]ccc3c2)cc1)NCCNS(=O)(=O)c1ccccc1Cl,
1.82 nM,COc1ccc(S(=O)(=O)NCCNC(=O)CCc2ccc(-c3cnc4[nH]ccc4c3)cc2)cc1,
269 nM,O=S(=O)(NCCNCCc1ccc(-c2cccnc2)cc1)c1cccc2cnccc12,
1.35 nM,O=C(CCc1ccc(-c2cnc3[nH]ccc3c2)cc1)NCCNS(=O)(=O)c1cccc2cnccc12,
1.32 nM,O=S(=O)(NCCNCCCc1ccc(-c2cnc3[nH]ccc3c2)cc1)c1ccccc1,
2.4 nM,O=C(CCc1ccc(-c2cnc3[nH]ccc3c2)cc1)NCCNS(=O)(=O)c1ccc(Cl)cc1,
2.4 nM,COc1ccc(S(=O)(=O)NCCNCCCc2ccc(-c3cnc4[nH]ccc4c3)cc2)cc1,
4.07 nM,O=C(CCc1ccc(-c2cnc3[nH]ccc3c2)cc1)NCCNS(=O)(=O)c1ccc(Cl)c(Cl)c1,
0.324 nM,O=C(CCc1ccc(-c2cnc3[nH]ccc3c2)cc1)NCCNS(=O)(=O)c1ccccc1,
6.92 nM,O=C(CCc1ccc(-c2cnc3[nH]ccc3c2)cc1)NCCNS(=O)(=O)c1cc(Cl)cc(Cl)c1,
8.91 nM,O=S(=O)(NCCNCCCc1ccc(-c2cccnc2)cc1)c1cccc2cnccc12,
1.91 nM,O=C(CCc1ccc(-c2cnc3[nH]ccc3c2)cc1)NCCNS(=O)(=O)c1cccc(Cl)c1,
4.27 nM,O=C(CCc1ccc(-c2cnc3[nH]ccc3c2)cc1)NCCNS(=O)(=O)c1cccc(C(F)(F)F)c1,
7.41 nM,O=S(=O)(NCCNCCCc1ccc(-c2cnc3[nH]ccc3c2)cc1)c1ccc(Cl)c(Cl)c1,
23.4 nM,Nc1ccc(-c2ccc(CCC(=O)NCCNS(=O)(=O)c3cccc4cnccc34)cc2)cn1,
4.37 nM,O=S(=O)(NCCNCCCc1ccc(-c2cnc3[nH]ccc3c2)cc1)c1ccc(Cl)cc1,
0.407 nM,O=C(CCc1ccc(-c2cnc3[nH]ccc3c2)cc1)NCCNS(=O)(=O)c1ccc(F)cc1,
1.66 nM,O=S(=O)(NCCNCCCc1ccc(-c2cnc3[nH]ccc3c2)cc1)c1cccc2cnccc12,
2.14 nM,Cc1ccc(S(=O)(=O)NCCNC(=O)CCc2ccc(-c3cnc4[nH]ccc4c3)cc2)cc1,
2.04 nM,Cc1ccc(S(=O)(=O)NCCNCCCc2ccc(-c3cnc4[nH]ccc4c3)cc2)cc1,
